Results reported in US9708259B2 (Hoffmann-La Roche Inc., priority 2013, dated 2017).
Numbering of substitutions follows the chain as printed. pEC50: −log10 of the molar value. Read-outs that look alike come from different tables or passages of the source.

Legend:
human M1 = target: T1, human M1 (Homo sapiens, UniProt P11229); assay: M1 PAM assay (FLIPR intracellular calcium), human M1; format: cell-based
T1 construct: expressed in transfected cells; host or cells: CHO cells
T1 sequence (P11229 1-460): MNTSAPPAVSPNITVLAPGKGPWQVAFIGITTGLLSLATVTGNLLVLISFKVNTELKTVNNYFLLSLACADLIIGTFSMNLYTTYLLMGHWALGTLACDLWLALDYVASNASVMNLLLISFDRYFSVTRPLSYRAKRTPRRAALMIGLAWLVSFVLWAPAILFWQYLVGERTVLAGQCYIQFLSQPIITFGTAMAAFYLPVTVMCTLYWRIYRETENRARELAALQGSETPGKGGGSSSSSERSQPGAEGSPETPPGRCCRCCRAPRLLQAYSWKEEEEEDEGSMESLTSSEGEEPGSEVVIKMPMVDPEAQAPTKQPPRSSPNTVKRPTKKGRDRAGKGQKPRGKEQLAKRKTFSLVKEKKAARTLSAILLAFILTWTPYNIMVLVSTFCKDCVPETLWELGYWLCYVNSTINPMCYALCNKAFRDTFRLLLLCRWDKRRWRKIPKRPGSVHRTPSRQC
Procedure, shortened: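 CHO cells expressing M1, Fluo-4AM-loaded, in HEPES/probenecid HBSS pH 7.4, 1% DMSO final. Compounds pre-incubated 2 min for agonist activity versus 30 nM acetylcholine control. For PAM activity, acetylcholine EC20 added after the 2 min pre-incubation, then 2 min more before FLIPR intracellular Ca2+ read.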

ratM1 = target: T2, ratM1 (Rattus norvegicus, UniProt P08482); assay: M1 PAM assay (FLIPR intracellular calcium), rat M1; format: cell-based
T2 construct: expressed in transfected cells; host or cells: CHO cells (stated generally for the assay, not specifically for rat M1)
T2 sequence (P08482 1-460): T1 sequence (P11229 1-460) with A5V, T254S, P309S, R320K, A337G, I413V

[1] = CHO human M1 cells, FLIPR Ca2+, with EC20 of acetylcholine, first value of the cell, read-out: hM1 EC50
[2] = rat M1, FLIPR Ca2+, second value of the cell, read-out: ratM1 EC50

SMILES | pEC50 (human M1) | pEC50 (ratM1) | pEC50 (human M1; [1]) | pEC50 (ratM1; [2])
O=C(N[C@H]1CCCC[C@@H]1O)c1cn(Cc2cc(F)cc(F)c2)c2cccc(F)c12 [Example 43, 1-(3,5-difluorobenzyl)-4-fluoro-N-((1S,2S)-2-hydroxycyclohexyl)-1H-indole-3-carboxamide] | 6.31 | 6.20 |  | 
Cn1cc(-c2ccc(Cn3cc(C(=O)N[C@H]4CCCC[C@]4(C)O)c4c(F)cccc43)c(F)c2)cn1 (racemic) [Example 18, 4-fluoro-1-(2-fluoro-4-(1-methyl-1H-pyrazol-4-yl)benzyl)-N-((1SR,2SR)-2-hydroxy-2-methylcyclohexyl)-1H-indole-3-carboxamide] |  |  | 7.21 | 6.73
CNC(=O)c1ccc(Cn2cc(C(=O)NCC3CC3)c3c(F)cccc32)cc1 [Example 116, N-(cyclopropylmethyl)-4-fluoro-1-[[4-(methylcarbamoyl)phenyl]methyl]indole-3-carboxamide] |  |  | 7.13 | 6.49
Cc1ccn(-c2ccc(Cn3cc(C(=O)N[C@H]4CCCC[C@@H]4O)c4c(F)c(F)ccc43)cc2)n1 [Example 61, 4,5-difluoro-N-((1S,2S)-2-hydroxycyclohexyl)-1-(4-(3-methyl-1H-pyrazol-1-yl)benzyl)-1H-indole-3-carboxamide] |  |  | 6.46 | 6.29
CNC(=O)c1ccc(Cn2cc(C(=O)NC3CCOCC3)c3c(F)cccc32)cc1F [Example 163, 4-Fluoro-1-(3-fluoro-4-(methylcarbamoyl)benzyl)-N-(tetrahydro-2H-pyran-4-yl)-1H-indole-3-carboxamide] |  |  | 7.23 | 7.09
O=C(N[C@H]1CCCC[C@@H]1O)c1cn(Cc2ccc(N3CCCC3)nc2)c2cccc(F)c12 [Example 162, 4-fluoro-N-((1S,2S)-2-hydroxycyclohexyl)-1-((6-(pyrrolidin-1-yl)pyridin-3-yl)methyl)-1H-indole-3-carboxamide] |  |  | 6.67 | 6.12
Cn1cc(-c2ccc(Cn3cc(C(=O)N[C@H]4CCCC[C@@H]4O)c4c(F)cccc43)cc2)cn1 [Example 44, 4-fluoro-N-((1S,2S)-2-hydroxycyclohexyl)-1-(4-(1-methyl-1H-pyrazol-4-yl)benzyl)-1H-indole-3-carboxamide] |  |  | 8.22 | 8.01
CNC(=O)c1ccc(Cn2cc(C(=O)NC3(C)CCOCC3)c3c(F)cccc32)cc1 [Example 123, 4-fluoro-1-[[4-(methylcarbamoyl)phenyl]methyl]-N-(4-methyloxan-4-yl)indole-3-carboxamide] |  |  | 6.44 | 6.17
O=C(N[C@H]1CCCC[C@@H]1O)c1cn(Cc2cnc(-c3ccccc3)nc2)c2cccc(F)c12 [Example 139, 4-fluoro-N-((1S,2S)-2-hydroxycyclohexyl)-1-((2-phenylpyrimidin-5-yl)methyl)-1H-indole-3-carboxamide] |  |  | 6.37 | 5.58
Cn1cc(-c2ccc(Cn3cc(C(=O)NC4CCCCC4)c4c(F)cccc43)c(F)c2)cn1 [Example 20, N-cyclohexyl-4-fluoro-1-(2-fluoro-4-(1-methyl-1H-pyrazol-4-yl)benzyl)-1H-indole-3-carboxamide] |  |  | 6.69 | 6.37
Cn1cc(-c2ccc(Cn3cc(C(=O)N[C@H]4CCCC[C@@H]4O)c4c(F)c(F)c(F)c(F)c43)cn2)cn1 [Example 27, 4,5,6,7-tetrafluoro-N-((1S,2S)-2-hydroxycyclohexyl)-1-((6-(1-methyl-1H-pyrazol-4-yl)pyridine-3-yl)methyl)-1H-indole-3-carboxamide] |  |  | 7.25 | 7.09
O=C(N[C@H]1CCCC[C@@H]1O)c1cn(Cc2ccc(-c3ccno3)cc2)c2cccc(F)c12 [Example 138, 4-fluoro-N-((1S,2S)-2-hydroxycyclohexyl)-1-(4-(isoxazol-5-yl)benzyl)-1H-indole-3-carboxamide] |  |  | 7.80 | 7.42
Cn1cc(-c2ccc(Cn3cc(C(=O)N[C@@H]4CCCC(F)(F)[C@H]4O)c4c(F)cccc43)cc2)cn1 [Example 100, N-((1R,2S)-3,3-difluoro-2-hydroxycyclohexyl)-4-fluoro-1-(4-(1-methyl-1H-pyrazol-4-yl)benzyl)-1H-indole-3-carboxamide] |  |  | 8.40 | 7.82
O=C(N[C@H]1CCCC[C@@H]1O)c1cn(Cc2ccc(-c3ccn[nH]3)cc2)c2cccc(F)c12 [Example 155, 1-(4-(1H-Pyrazol-5-yl)benzyl)-4-fluoro-N-((1S,2S)-2-hydroxycyclohexyl)-1H-indole-3-carboxamide] |  |  | 7.96 | 8.30
CNC(=O)c1ccc(Cn2cc(C(=O)NC3CCOCC3C)c3c(F)cccc32)cc1 (centres unmarked) [Example 126, 4-fluoro-1-[[4-(methylcarbamoyl)phenyl]methyl]-N-(3-methyloxan-4-yl)indole-3-carboxamide] |  |  | 7.72 | 7.29
Cn1cc(-c2ccc(Cn3cc(C(=O)N[C@H]4CCCC(F)(F)[C@@H]4O)c4c(F)cccc43)cc2)cn1 [Example 101, N-((1S,2R)-3,3-difluoro-2-hydroxycyclohexyl)-4-fluoro-1-(4-(1-methyl-1H-pyrazol-4-yl)benzyl)-1H-indole-3-carboxamide] |  |  | 7.85 | 7.38
Cn1cc(-c2ccc(Cn3cc(C(=O)N[C@H]4CCCC[C@@]4(C)O)c4c(F)cccc43)c(F)c2)cn1 (racemic) [Example 23, 4-fluoro-1-(2-fluoro-4-(1-methyl-1H-pyrazol-4-yl)benzyl)-N-((1SR,2RS)-2-hydroxy-2-methylcyclohexyl)-1H-indole-3-carboxamide] |  |  | 7.83 | 7.59
Cn1cc(-c2ccc(Cn3cc(C(=O)N[C@H]4CCCC[C@@H]4O)c4c(F)c(F)ccc43)cn2)cn1 [Example 58, 4,5-difluoro-N-((1S,2S)-2-hydroxycyclohexyl)-1-((6-(1-methyl-1H-pyrazol-4-yl)pyridine-3-yl)methyl)-1H-indole-3-carboxamide] |  |  | 6.76 | 5.00
Cn1cc(-c2ccc(Cn3cc(C(=O)N[C@H]4CCOC[C@@H]4O)c4c(F)ccc(C5CC5)c43)c(F)c2)cn1 [Example 107, 7-cyclopropyl-4-fluoro-1-(2-fluoro-4-(1-methyl-1H-pyrazol-4-yl)benzyl)-N-((3R,4S)-3-hydroxytetrahydro-2H-pyran-4-yl)-1H-indole-3-carboxamide] |  |  | 6.32 | 6.12
CCc1ccc(F)c2c(C(=O)N[C@H]3CCOC[C@@H]3O)cn(Cc3ccc(-c4cnn(C)c4)cc3)c12 [Example 109, 7-ethyl-4-fluoro-N-((3R,4S)-3-hydroxytetrahydro-2H-pyran-4-yl)-1-(4-(1-methyl-1H-pyrazol-4-yl)benzyl)-1H-indole-3-carboxamide] |  |  | 7.21 | 7.10
Cc1cn(-c2ccc(Cn3cc(C(=O)N[C@H]4CCCC[C@@H]4O)c4c(F)cccc43)cc2)cn1 [Example 36, 4-fluoro-N-((1S,2S)-2-hydroxycyclohexyl)-1-(4-(4-methyl-1H-imidazol-1-yl)benzyl)-1H-indole-3-carboxamide] |  |  | 7.81 | 7.59
CNC(=O)c1ccc(Cn2cc(C(=O)NC3CC3)c3c(F)cccc32)cc1 [Example 111, N-cyclopropyl-4-fluoro-1-[[4-(methylcarbamoyl)phenyl]methyl]indol-3-carboxamide] |  |  | 6.90 | 6.39
CNC(=O)c1ccc(Cn2cc(C(=O)NC3CCSCC3)c3c(F)cccc32)cc1 [Example 124, 4-fluoro-1-[[4-(methylcarbamoyl)phenyl]methyl]-N-(thian-4-yl)indole-3-carboxamide] |  |  | 7.96 | 7.62
O=C(N[C@H]1CCCC[C@@H]1O)c1cn(Cc2ccc(-c3nccs3)cn2)c2cccc(F)c12 [Example 141, 4-fluoro-N-((1S,2S)-2-hydroxycyclohexyl)-1-((5-(thiazol-2-yl)pyridin-2-yl)methyl)-1H-indole-3-carboxamide] |  |  | 6.81 | 6.34
Cn1cc(-c2ccc(Cn3cc(C(=O)NC4CCOCC4)c4c(F)ccc(F)c43)cc2)cn1 [Example 95, 4,7-difluoro-1-(4-(1-methyl-1H-pyrazol-4-yl)benzyl)-N-(tetrahydro-2H-pyran-4-yl)-1H-indole-3-carboxamide] |  |  | 7.57 | 7.30
